Laboratory results from publication PMC11720030, “Inhibitory Activity of N- and S-Functionalized Monoterpene Diols Towards Monoamine Oxidases A and B” (International Journal of Molecular Sciences, 2024).

Tests used:
Type in all cases: biochemical
MAO-A [1] = target: T1, MAO-A (Mus musculus, UniProt Q64133); experiment: fluorescent kynuramine MAO activity assay in crude mouse brain mitochondria
T1 construct: gene Maoa
T1 sequence (Q64133 1-526): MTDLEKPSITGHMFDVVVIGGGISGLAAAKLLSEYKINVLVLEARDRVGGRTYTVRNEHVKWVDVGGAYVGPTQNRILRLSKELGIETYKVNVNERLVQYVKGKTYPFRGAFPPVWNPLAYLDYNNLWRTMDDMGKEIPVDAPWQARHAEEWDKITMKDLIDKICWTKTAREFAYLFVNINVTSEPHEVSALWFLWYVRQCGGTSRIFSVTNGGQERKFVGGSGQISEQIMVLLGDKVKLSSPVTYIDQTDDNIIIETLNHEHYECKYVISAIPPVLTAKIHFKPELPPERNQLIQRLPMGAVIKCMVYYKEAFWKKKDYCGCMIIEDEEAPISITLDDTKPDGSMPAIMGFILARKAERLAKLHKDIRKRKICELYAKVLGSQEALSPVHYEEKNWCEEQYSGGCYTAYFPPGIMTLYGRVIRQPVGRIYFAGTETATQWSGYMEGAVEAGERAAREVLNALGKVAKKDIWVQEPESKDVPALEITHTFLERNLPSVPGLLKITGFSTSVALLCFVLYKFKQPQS

MAO-B [2] = target: T2, MAO-B (Mus musculus, UniProt Q8BW75); experiment: residual MAO-B activity at […], fluorescent kynuramine assay in crude mouse brain mitochondria; settings: read-out: MAO-B, % ± SD
T2 construct: gene Maob
T2 sequence (Q8BW75 2-520): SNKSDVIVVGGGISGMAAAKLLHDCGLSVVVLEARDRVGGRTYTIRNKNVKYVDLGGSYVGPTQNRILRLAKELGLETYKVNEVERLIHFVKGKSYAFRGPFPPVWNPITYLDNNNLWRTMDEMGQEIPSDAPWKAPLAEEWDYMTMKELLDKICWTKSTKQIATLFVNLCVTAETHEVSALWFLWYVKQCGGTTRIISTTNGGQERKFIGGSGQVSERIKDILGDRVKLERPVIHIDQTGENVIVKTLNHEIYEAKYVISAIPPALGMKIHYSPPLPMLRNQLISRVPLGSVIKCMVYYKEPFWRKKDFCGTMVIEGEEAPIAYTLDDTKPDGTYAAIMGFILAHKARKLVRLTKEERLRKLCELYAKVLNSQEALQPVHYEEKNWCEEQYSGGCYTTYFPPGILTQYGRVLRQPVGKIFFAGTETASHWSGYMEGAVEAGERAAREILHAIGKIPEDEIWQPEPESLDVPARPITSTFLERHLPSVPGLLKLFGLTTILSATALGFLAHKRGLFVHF

MAO-B [3] = target: T2, MAO-B; experiment: fluorescent kynuramine MAO activity assay in crude mouse brain mitochondria
MAO-A [4] = target: T1, MAO-A; experiment: residual MAO-A activity at […], fluorescent kynuramine assay in crude mouse brain mitochondria; settings: read-out: MAO-A, % ± SD

activity at 100 µM (MAO-B [2]) [%] | Structure (SMILES) | IC50 (MAO-A [1]) [µM] | other results
 | C#CCN(C)CCCOc1ccc(Cl)cc1Cl [clorgiline, reference compound] | 0.00136 | 
66 ± 0.1 | C=C(CNc1ccc(C)cc1)[C@@H]1CC=C(C)[C@@H](O)[C@@H]1O [compound 27, (1R,2R,6S)-3-Methyl-6-(3-(p-tolylamino)prop-1-en-2-yl)cyclohex-3-ene-1,2-diol] |  | 
 | C=C(CNc1ccc(C)cc1C)[C@@H]1CC=C(C)[C@@H](O)[C@@H]1O [compound 28, (1R,2R,6S)-6-(3-(2,4-Dimethylphenylamino)prop-1-en-2-yl)-3-methylcyclohex-3-ene-1,2-diol] | 178 ± 44 | 
 | C=C(CNc1ccccc1C(C)=O)[C@@H]1CC=C(C)[C@@H](O)[C@@H]1O [compound 30, 1-(2-(2-((1S,5R,6R)-5,6-Dihydroxy-4-methylcyclohex-3-enyl)allylamino)phenyl)ethanone] |  | IC50 (MAO-B [3]): 95 ± 5 µM; activity at 100 µM (MAO-A [4]): 57 ± 1%
66 ± 2 | C=C(CNc1cccc(C(C)=O)c1)[C@@H]1CC=C(C)[C@@H](O)[C@@H]1O [compound 31, 1-(3-(2-((1S,5R,6R)-5,6-Dihydroxy-4-methylcyclohex-3-enyl)allylamino)phenyl)ethanone] |  | 
